Measurements published in ChEMBL document CHEMBL3603802, “Design and synthesis of new non nucleoside inhibitors of DNMT3A” (Bioorg Med Chem, 2015).

Experiments:
[1] = biological target: T1, DNA (cytosine-5)-methyltransferase 3A (Homo sapiens, UniProt Q9Y6K1); assay: Inhibition of human C-terminal DNMT3A at 20 uM after 1 hr by fluorescence assay
[2] = biological target: T1, DNA (cytosine-5)-methyltransferase 3A; assay: Inhibition of human C-terminal DNMT3A at 32 uM after 1 hr by fluorescence assay
[3] = biological target: T1, DNA (cytosine-5)-methyltransferase 3A; assay: Inhibition of human C-terminal DNMT3A after 1 hr by fluorescence assay
[4] = biological target: DNA (cytosine-5)-methyltransferase 1 (Homo sapiens) (UniProt P26358); assay: Inhibition of human His-DNMT1 using [methyl-3H]SAM as substrate at 32 uM after 2 hrs
[5] = biological target: DNA (cytosine-5)-methyltransferase 1 (Homo sapiens) (UniProt P26358); assay: Inhibition of human His-DNMT1 using [methyl-3H]SAM as substrate at 100 uM after 2 hrs
[6] = Chemical stability of the compound in DMSO by HPLC analysis; format: physicochemical
[7] = Chemical stability of the compound after 30 mins by LC-MS analysis in presence of glutathione; format: physicochemical; conditions: 0.5 h
[8] = Antiproliferative activity against human KG1 cells after 2 to 4 days by ATPlite 1step luminescence assay; format: functional, cell-based; conditions: KG-1
[9] = Antiproliferative activity against human KARPAS299 cells after 2 to 4 days by ATPlite 1step luminescence assay; format: functional, cell-based; conditions: KARPAS-299
HCT-116 = assay: Antiproliferative activity against human HCT116 cells after 2 to 4 days by ATPlite 1step luminescence assay; format: functional, cell-based

T1 sequence (Q9Y6K1 whole entry, looked up): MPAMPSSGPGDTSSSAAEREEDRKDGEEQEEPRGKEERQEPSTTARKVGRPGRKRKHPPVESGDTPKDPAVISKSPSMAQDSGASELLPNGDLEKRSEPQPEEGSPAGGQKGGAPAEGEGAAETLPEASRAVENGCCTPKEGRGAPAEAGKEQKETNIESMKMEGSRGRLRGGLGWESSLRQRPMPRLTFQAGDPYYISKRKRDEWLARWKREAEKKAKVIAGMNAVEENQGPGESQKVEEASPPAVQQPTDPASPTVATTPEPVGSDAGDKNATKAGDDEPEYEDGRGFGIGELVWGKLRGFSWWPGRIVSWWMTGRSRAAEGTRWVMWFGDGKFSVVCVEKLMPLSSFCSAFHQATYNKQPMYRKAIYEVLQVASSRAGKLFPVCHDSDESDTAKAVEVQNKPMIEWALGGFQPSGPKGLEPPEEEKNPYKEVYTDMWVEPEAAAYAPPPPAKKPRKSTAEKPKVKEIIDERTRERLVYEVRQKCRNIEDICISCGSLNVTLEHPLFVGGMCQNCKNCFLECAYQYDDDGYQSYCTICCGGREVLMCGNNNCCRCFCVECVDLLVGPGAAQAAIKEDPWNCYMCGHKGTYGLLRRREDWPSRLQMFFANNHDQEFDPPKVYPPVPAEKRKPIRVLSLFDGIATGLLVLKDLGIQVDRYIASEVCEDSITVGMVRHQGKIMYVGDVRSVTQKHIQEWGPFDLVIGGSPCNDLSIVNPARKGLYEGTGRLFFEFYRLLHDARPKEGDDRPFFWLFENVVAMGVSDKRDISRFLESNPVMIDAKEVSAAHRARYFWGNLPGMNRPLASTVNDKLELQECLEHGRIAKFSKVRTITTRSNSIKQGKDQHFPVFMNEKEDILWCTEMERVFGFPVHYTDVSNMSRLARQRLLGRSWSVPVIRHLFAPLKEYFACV
Chain of DNA (cytosine-5)-methyltransferase 1 (Homo sapiens) (P26358 whole entry): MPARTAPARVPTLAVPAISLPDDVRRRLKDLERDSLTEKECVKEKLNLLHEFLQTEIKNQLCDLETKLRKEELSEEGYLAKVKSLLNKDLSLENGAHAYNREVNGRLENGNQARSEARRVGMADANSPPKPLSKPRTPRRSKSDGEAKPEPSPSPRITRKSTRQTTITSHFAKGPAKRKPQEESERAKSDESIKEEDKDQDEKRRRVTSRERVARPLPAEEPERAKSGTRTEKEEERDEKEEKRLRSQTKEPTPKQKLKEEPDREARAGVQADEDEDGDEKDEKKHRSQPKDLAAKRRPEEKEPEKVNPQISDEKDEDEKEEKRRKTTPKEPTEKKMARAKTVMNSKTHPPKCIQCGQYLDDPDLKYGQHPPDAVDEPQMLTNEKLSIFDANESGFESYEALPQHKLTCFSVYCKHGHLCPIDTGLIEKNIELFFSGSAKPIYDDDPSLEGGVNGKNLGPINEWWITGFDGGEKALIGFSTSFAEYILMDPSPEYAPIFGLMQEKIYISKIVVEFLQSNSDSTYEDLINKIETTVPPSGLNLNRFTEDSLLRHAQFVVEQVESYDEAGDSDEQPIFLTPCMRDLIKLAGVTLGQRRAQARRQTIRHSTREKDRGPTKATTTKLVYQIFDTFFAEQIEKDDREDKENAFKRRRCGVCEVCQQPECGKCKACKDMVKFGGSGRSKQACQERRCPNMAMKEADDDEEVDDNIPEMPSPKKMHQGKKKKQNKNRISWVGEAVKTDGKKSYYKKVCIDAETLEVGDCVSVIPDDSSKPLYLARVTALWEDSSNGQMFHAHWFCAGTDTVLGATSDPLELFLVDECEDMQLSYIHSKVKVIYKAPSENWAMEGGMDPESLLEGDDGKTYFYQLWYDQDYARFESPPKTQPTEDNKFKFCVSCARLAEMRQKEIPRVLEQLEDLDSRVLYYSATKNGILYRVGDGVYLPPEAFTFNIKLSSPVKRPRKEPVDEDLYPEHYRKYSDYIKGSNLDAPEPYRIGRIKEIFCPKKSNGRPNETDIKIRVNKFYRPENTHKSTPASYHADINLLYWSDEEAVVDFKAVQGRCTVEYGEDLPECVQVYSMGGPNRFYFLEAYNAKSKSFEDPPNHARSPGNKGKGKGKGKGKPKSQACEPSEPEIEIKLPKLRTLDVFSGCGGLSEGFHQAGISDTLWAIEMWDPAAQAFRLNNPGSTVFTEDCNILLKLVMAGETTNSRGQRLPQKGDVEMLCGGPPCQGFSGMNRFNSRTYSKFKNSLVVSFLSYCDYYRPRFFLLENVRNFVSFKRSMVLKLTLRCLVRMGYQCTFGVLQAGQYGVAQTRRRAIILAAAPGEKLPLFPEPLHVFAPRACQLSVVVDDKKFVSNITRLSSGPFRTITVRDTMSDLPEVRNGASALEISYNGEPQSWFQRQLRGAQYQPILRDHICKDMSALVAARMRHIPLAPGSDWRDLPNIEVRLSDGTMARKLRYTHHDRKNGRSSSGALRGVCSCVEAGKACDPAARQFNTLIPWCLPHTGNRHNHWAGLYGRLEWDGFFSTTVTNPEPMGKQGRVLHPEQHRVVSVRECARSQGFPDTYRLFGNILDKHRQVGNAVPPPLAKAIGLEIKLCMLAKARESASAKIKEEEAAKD

Compound | inhibition [1] [%] | inhibition [2] [%] | further results
CC(C)SC(C(=O)c1ccc(Cl)cc1)n1cnc2ccccc21 (stereo unspecified) | 5 | – | –
O=C(c1ccc(Cl)cc1)C(CSCc1ncccn1)n1cnc2ccccc21 (stereo unspecified) | – | 43 | –
CCSCC(Cn1cnc2ccccc21)C(=O)c1ccc(Cl)cc1 (stereo unspecified) | 23 | – | –
CCSCC(Cn1ccnc1)C(=O)c1ccc(Cl)cc1 (stereo unspecified) | 9 | – | –
CCSCC(C(=O)c1ccc(Cl)cc1)n1cnc2ncnc(N)c21 (stereo unspecified) | – | 54 | –
CCSCC(C(=O)c1ccc(Cl)cc1)n1cnc2ccccc21 (stereo unspecified) | 70 | 45 | EC50 [3]: 3 µM; inhibition [4]: 70%; inhibition [5]: 22%; Stability [6]: Unstable
CCSCC(C(O)c1ccc(Cl)cc1)n1cnc2ccccc21 (stereo unspecified) | 4 | – | –
CCSC(C(=O)c1ccc(Cl)cc1)n1cnc2ccccc21 (stereo unspecified) | 15 | – | –
CC(C)(C)SC(C(=O)c1ccc(Cl)cc1)n1cnc2ccccc21 (stereo unspecified) | 10 | – | –
C=C(C(=O)c1ccc(Cl)cc1)n1cnc2ccccc21 | – | 81 | EC50 [3]: 4 µM; Stability [7]: Unstable
O=C(c1ccc(Cl)cc1)C(CSC1CCCCC1)n1cnc2ccccc21 (stereo unspecified) | 44 | – | –
CCSCC(C(=O)c1ccc(Cl)cc1)n1ccnc1 (stereo unspecified) | 43 | – | –
CC(C)SCC(C(=O)c1ccc(Cl)cc1)n1cnc2ccccc21 (stereo unspecified) | 43 | – | –
CCOCC(C(=O)c1ccc(Cl)cc1)n1cnc2ncnc(N)c21 (stereo unspecified) | – | 70 | EC50 [3]: 2.1 µM; inhibition [5]: 29%; Stability [6]: Unstable
CCSCC(C(OC)c1ccc(Cl)cc1)n1cnc2ccccc21 (stereo unspecified) | 5 | – | –
O=C(c1ccc(Cl)cc1)C(SC1CCCCC1)n1cnc2ccccc21 (stereo unspecified) | 21 | – | –
O=C(c1ccc(Cl)cc1)C(CSCc1ccccc1)n1cnc2ccccc21 (stereo unspecified) | 69 | 25 | –
CCSCC(C(=O)c1ccc(Cl)cc1)n1cccn1 (stereo unspecified) | 17 | – | –

Compound | inhibition [1] [%] | inhibition [2] [%] | further results
CCOC(c1ccc(Cl)cc1)C(CSCC)n1cnc2ccccc21 (stereo unspecified) | 9 | – | –
CN(C)/C=C(/C(=O)c1ccc(Cl)cc1)n1cnc2ccccc21 | – | 0 | Stability [6]: Stable
CCSCC(C(=O)c1ccc(OC)cc1)n1cnc2ccccc21 (stereo unspecified) | – | 0 | EC50 [8]: > 10 µM; EC50 [9]: > 10 µM; EC50 (HCT-116): > 10 µM
O=C(c1ccc(Cl)cc1)C(CSCC1CCCC1)n1cnc2ccccc21 (stereo unspecified) | – | 36 | –
CCSCC(Cn1cccn1)C(=O)c1ccc(Cl)cc1 (stereo unspecified) | 18 | – | –
O=C(Cn1cnc2ccccc21)c1ccc(Cl)cc1 | – | 12 | –
O=C(/C(=C/C=C/c1ccccc1)n1cnc2ccccc21)c1ccc(Cl)cc1 | – | 0 | Stability [6]: Stable
O=C(c1ccc(Cl)cc1)C(CSc1ncc[nH]1)n1cnc2ccccc21 (stereo unspecified) | – | 38 | –
O=C(c1ccc(Cl)cc1)C(CSCc1cccc([N+](=O)[O-])c1)n1cnc2ccccc21 (stereo unspecified) | – | 40 | –
COc1ccc(CSCC(C(=O)c2ccc(Cl)cc2)n2cnc3ccccc32)cc1 (stereo unspecified) | – | 34 | –
CCSCC(C(=O)c1ccccc1)n1cnc2ccccc21 (stereo unspecified) | – | 34 | –
Cc1cc(Nc2ccc(NC(=O)c3ccc(Nc4ccnc5ccccc45)cc3)cc2)nc(N)n1 | – | – | EC50 [8]: 4.4 µM; EC50 [9]: 1.8 µM; EC50 (HCT-116): > 10 µM
CCSCC(C(=O)c1ccc(Cl)c(Cl)c1)n1cnc2ccccc21 (stereo unspecified) | – | 38 | EC50 [8]: 3.7 µM; EC50 [9]: > 10 µM; EC50 (HCT-116): 3.1 µM
CCSCC(C(=O)c1ccc(Cl)cc1)n1cnc2c(N)ncnc21 (stereo unspecified) | – | 0 | –
O=C(c1ccc(Cl)cc1)C(CSCc1ccco1)n1cnc2ccccc21 (stereo unspecified) | – | 55 | –
CC(C)(C)SCC(C(=O)c1ccc(Cl)cc1)n1cnc2ccccc21 (stereo unspecified) | 40 | – | –
CCOCC(C(=O)c1ccc(Cl)cc1)n1cnc2ccccc21 (stereo unspecified) | – | 63 | –
